Experimental findings from patent US10285994B2, “Method of preventing or treating osteoporosis by neddylation inhibitor” (Chang Gung University, priority 2017, dated 2019) are described below.

For experiment [1], the system named is ovariectomized (OVX) mice. In words: Three-point bending test of femurs of OVX + sRANKL mice. The format is in vivo, mouse. The settings on record: 10 mg/kg i.p. once daily for 2 weeks. From the text:
FIGS. 7A-7D are histograms respectively depicting the mechanical properties of femurs in control, OVX, OVX+RANKL, and OVX+RANKL+MLN4924 groups according to example 5.2 of the present disclosure, including modulus (FIG. 7A), strain at break (FIG. 7B), stress at yield (FIG. 7C), and load at break (FIG. 7D). Values are expressed as mean±SD, N=6 per group. *p<0.05; **p<0.01.
All experimental procedures were approved by the Institutional Animal Care and Use Committee of the Chang Gung Memorial Hospital at Chiayi and complied with the Guideline for the Care and Use of Laboratory Animals available through the National Academy of Sciences (IACUC number: 2013100102 and 2015103001). All efforts were made to minimize the suffering of the animals. C57BL/6J female mice (6-8 weeks old; obtained from BioLasco in Taiwan) were operated ovariectomy surgery (OVX). 48 hours later of OVX operation, sRANKL (1 mg/kg) or saline was injected intraperitoneally once daily for two days followed by intraperitoneal injection of MLN4924 (10 mg/kg) once daily for 2 weeks. Mice were sacrificed with CO2 asphyxiation, and the tibias and femurs were isolated therefrom. The tibias were subject to histochemistry assay, and the femurs were subject to bending test and tomographic analysis by MTS (Testresources, Shakopee, Minn.) and Skyscan 1272 (Bruker, Kontich, Belgium), respectively. Serum levels of cross linked C-telopeptide of type I collagen (CTX-1) (CEA665Mu) was measured by specific ELISA kit (USCN life science incorporation, Wuhan, Hubei, China).
The femurs were tested to failure by three-point bending on an MTS Synergie 200 (Testresources, Shakopee, Minn.). The speed of load application was set as 1 mm/min with preload of 1N, load cell of 500N, settling time of 30 seconds and distance between the points of 10 mm. Force-displacement data were plotted from the structural properties, including modulus, load at break, stress at yield and strain at yield.
Bone loss results in bone fragile, thus rendering bone being easier to break. In this example, mice were first treated with OVX or OVX+sRANKL to cause bone loss, and then MLN4924 was administered. The femurs of mice were then subject to shaft fracture testing by three-point bending so as to evaluate the biomechanical properties thereof.

Another experiment relates to JNK (pJNK). Kind of experiment: Western blot, sRANKL-induced JNK phosphorylation in RAW264.7 cells. Type of experiment: cell-based, mouse. The conditions noted are these: RAW264.7, 30 min pre-treatment, sRANKL 50 ng/ml, FIG. 3A-3B. As to the method: FIGS. 3A-3D are data collected from Western blot analysis that respectively depict the expression of specified protein extracted from the RAW264.7 cells, which are pre-treated with specified concentrations of MLN4924 for 30 minutes followed by the stimulation of sRANKL (50 ng/ml) according to example 2 of the present disclosure. FIG. 3A: the time course effect of MLN4924 on the phosphorylations of ERK (pERK), P38 (pP38) and JNK (pJNK). FIG. 3B: the dose effect of MLN4924 on the phosphorylations of ERK (pERK), P38 (pP38) and JNK (pJNK). FIG. 3C: the time course effect of MLN4924 on the expression of NFATc-1. FIG. 3D: the dose effect of MLN4924 on the expression of NFATc-1. Mock: untreated control; R: sRANKL; M: MLN4924.
The RAW264.7 cells were starved with serum-free medium for six hours and then treated with the specified treatments. At indicated time points, the cells were washed with cold phosphate-buffered saline (PBS) and lysed in RIPA buffer containing complete protease inhibitor cocktail (Roche). The cell lysates were separated by SDS-PAGE followed by Western blotting with the indicated antibodies, including NEDD8, APPBP1, UBA3.
Specifically, the inhibitory effect increased with an increase in the MLN4924 concentration (FIG. 3B).
In general terms: A western blot detects proteins with antibodies after separation by electrophoresis.

Experiment [2] has as its system primary mouse bone marrow-derived macrophages (BMMs). Kind of experiment: Osteoclast formation from BMMs, TRAP staining. The conditions noted are these: sRANKL 50 ng/ml, M-CSF 40 ng/ml, 7 days, FIG. 1A. The format is cell-based. As to the method:
FIGS. 1A-1D are data collected from primary mouse bone marrow-derived macrophages (BMMs) respectively incubated in the medium containing the soluble recombinant RANKL (sRANKL, 50 ng/ml), macrophage colony-stimulating factor (M-CSF, 40 ng/ml) and specified concentrations of MLN4924 for 7 days according to example 1.1 of the present disclosure. FIG. 1A: the photographs of TRAP staining depicting the differentiation of osteoclasts from BMMs. FIG. 1B: after the differentiation of osteoclasts in Corning Osteo Surface (a synthetic 3-dimensional structure that mimics in vivo bone for in vitro bone cell assays), the cells were removed, and the resorbed areas for confirming osteoclast activity were analyzed by 1% toluidine blue staining. FIG. 1C: the culture medium is subject to Biovision Cathepsin K Activity Fluorometric Assay Kit for the analysis of cathepsin K activity. FIG. 1D: the effect of effective doses of MLN4924 on the viability of BMMs is evaluated by MTT assay. Scale bar represents 100 μm. Data are expressed as mean±SD where *p<0.05; **p<0.01.
The pre-osteoclast cells were prepared by mouse bone marrow-derived macrophage (BMM). In brief, the femurs and tibias were obtained from 6-12 week old C57BL/6J female mice. […]

Consider `NS(=O)(=O)OC[C@@H]1C[C@@H](n2ccc3c(N[C@H]4CCc5ccccc54)ncnc32)C[C@@H]1O` [MLN4924, (1S,2S,4R)-4-(4-((1S)-2,3-Dihydro-1H-inden-1-ylamino)-7H-pyrrolo(2,3-d)pyrimidin-7-yl)-2-hydroxycyclopentyl) methyl sulphamate], for which the femur modulus result in experiment [1] (FIG. 7A) is recorded as “prevented the levels of these parameters from dropping”. Besides, in experiment [1] (FIG. 7B), the “femur strain at break” value is on record as “prevented the levels of these parameters from dropping”. Besides, the “femur stress at yield” value in experiment [1] (FIG. 7C) was “prevented the levels of these parameters from dropping”. In addition, in experiment [1] (FIG. 7D), the “femur load at break” value is on record as “prevented the levels of these parameters from dropping”. Also, the “sRANKL-upregulated phosphorylation of JNK (pJNK)” value with JNK (pJNK) is “inhibited”. Moreover, in experiment [2], the “sRANKL-mediated osteoclast formation (TRAP staining)” value is on record as “obviously suppressed the sRANKL-mediated osteoclast formation in a dose-dependent manner”.
